Assay results published in patent US20050245399A1, “Pyrazole derivatives as herbicidal compositions containing them” (ISHIHARA SANGYO KAISHA, LTD., priority 2004, published 2005).

Key:
Assay type in all cases: in vivo
[1] = test system: prickly sida (Sida spinosa L.): SEDSP; experiment: Test Example 1 pre-emergence herbicidal activity, SIDSP; conditions: Rate 63 g a.i./ha, visually observed 20th to 23rd day after application
Text: (§1) Upland field soil was put into a 1/170,000 ha pot, and seeds of various plants {1. barnyardgrass (Echinochloa crus-galli L.): ECHCG, 2. crabgrass (Digitaria sanguinalis L.): DIGSA, 3. green foxtail (Setaria viridis L.): SETVI, 4. redroot pigweed (Amaranthus retroflexus L.): AMARE, 5. prickly sida (Sida spinosa L.): SEDSP, 6. velvetleaf (Abutilon theophrasti): ABUTH, 7. common cocklebur (Xanthium strumarium L.): XANST, 8. rice (Oryza sativa L.): ORYSA, 9. wheat (Triticum aestivum L.): TRZAX, 10. corn (Zea mays L.): ZEAMX, 11. soybean (Glycine max Merr.): GLXMA} were sown. Then, one day after the sowing, a wettable powder or emulsifiable concentrate having the compound of the present invention formulated in accordance with a usual formulation method, was weighed so that the active ingredient would be a predetermined amount and diluted with water in an amount of 500 L/ha. The herbicide adjusted was applied by a small size sprayer for preemergence treatment. On the 20th to 23rd day after the application of the herbicide, the growth of the respective plants was visually observed, and the herbicidal effects were evaluated by growth controlling degrees (%) ranging from 0 (equivalent to the untreated control) to 100 (complete kill), whereby the results shown in Table 4, were obtained. Compound Nos. in Table 4 correspond to Compound Nos. in Table 1 and 2 given hereinbefore.

[2] = test system: soybean (Glycine max Merr.), GLXMA; experiment: Test Example 2 post-emergence (foliage treatment) herbicidal activity, GLXMA; conditions: 63 g a.i./ha
Text: (§2) Upland field soil was put into a 1/170,000 ha pot, and seeds of various plants were sown. Then, when the plants reached predetermined leaf stages {1. barnyardgrass (Echinochloa crus-galli L.), ECHCG: 1.1-2.1 leaf stage, 2. crabgrass (Digitaria sanguinalis L.), DIGSA: 1.0-2.0 leaf stage, 3. green foxtail (Setaria viridis L.), SETVI: 1.0-2.2 leaf stage, 4. redroot pigweed (Amaranthus retroflexus L.), AMARE: 0.1-1.5 leaf stage, 5. prickly sida (Sida spinosa L.), SIDSP: 0.1-0.6 leaf stage, 6. velvetleaf (Abutilon theophrasti), ABUTH: 0.1-0.6 leaf stage, 7. common cocklebur (Xanthium strumarium L.), XANST: 0.1 leaf stage, 8. rice (Oryza sativa L.), ORYSA; 1.0-2 leaf stage, 9. wheat (Triticum aestivum L.), TRZAX: 2.3-3.5 leaf stage, 10. corn (Zea mays L.), ZEAMXN 2.1-2.6 leaf stage, 11. soybean (Glycine max Merr.), GLXMA: primary leaf stage}, a wettable powder or emulsifiable concentrate having the compound of the present invention formulated in accordance with a usual formulation method, was weighed so that the active ingredient would be a predetermined amount, and diluted with water in an amount of 500 L/ha. To the diluted solution, 0.1% (v/v) of an agricultural spreader was added. The herbicide adjusted was applied by a small size sprayer for foliage treatment. On the 20th to 23rd day after the application of the herbicide, the growth of the respective plants was visually observed, and the herbicidal effects were evaluated by growth controlling degrees (%) ranging from 0 (equivalent to the untreated control) to 100 (complete kill), whereby the results shown in Table 5, were obtained. Compound Nos. in Table 5 correspond to Compound Nos. in Table 1 and 2 given hereinbefore.

[3] = test system: velvetleaf (Abutilon theophrasti), ABUTH; experiment: Test Example 2 post-emergence (foliage treatment) herbicidal activity, ABUTH; conditions: 63 g a.i./ha
Text: as §2

[4] = test system: green foxtail (Setaria viridis L.): SETVI; experiment: Test Example 1 pre-emergence herbicidal activity, SETVI; conditions: Rate 63 g a.i./ha, visually observed 20th to 23rd day after application
Text: as §1

[5] = test system: rice (Oryza sativa L.): ORYSA; experiment: Test Example 1 pre-emergence herbicidal activity, ORYSA; conditions: Rate 63 g a.i./ha, visually observed 20th to 23rd day after application
Text: as §1

[6] = test system: crabgrass (Digitaria sanguinalis L.), DIGSA; experiment: Test Example 2 post-emergence (foliage treatment) herbicidal activity, DIGSA; conditions: 63 g a.i./ha
Text: as §2

[7] = test system: redroot pigweed (Amaranthus retroflexus L.): AMARE; experiment: Test Example 1 pre-emergence herbicidal activity, AMARE; conditions: Rate 63 g a.i./ha, visually observed 20th to 23rd day after application
Text: as §1

[8] = test system: rice (Oryza sativa L.), ORYSA; experiment: Test Example 2 post-emergence (foliage treatment) herbicidal activity, ORYSA; conditions: 63 g a.i./ha
Text: as §2

[9] = test system: wheat (Triticum aestivum L.): TRZAX; experiment: Test Example 1 pre-emergence herbicidal activity, TRZAX; conditions: Rate 63 g a.i./ha, visually observed 20th to 23rd day after application
Text: as §1

[10] = test system: green foxtail (Setaria viridis L.), SETVI; experiment: Test Example 2 post-emergence (foliage treatment) herbicidal activity, SETVI; conditions: 63 g a.i./ha
Text: as §2

[11] = test system: corn (Zea mays L.): ZEAMX; experiment: Test Example 1 pre-emergence herbicidal activity, ZEAMX; conditions: Rate 63 g a.i./ha, visually observed 20th to 23rd day after application
Text: as §1

[12] = test system: soybean (Glycine max Merr.): GLXMA; experiment: Test Example 1 pre-emergence herbicidal activity, GLXMA; conditions: Rate 63 g a.i./ha, visually observed 20th to 23rd day after application
Text: as §1

[13] = test system: redroot pigweed (Amaranthus retroflexus L.), AMARE; experiment: Test Example 2 post-emergence (foliage treatment) herbicidal activity, AMARE; conditions: 63 g a.i./ha
Text: as §2

[14] = test system: corn (Zea mays L.), ZEAMX; experiment: Test Example 2 post-emergence (foliage treatment) herbicidal activity, ZEAMX; conditions: 63 g a.i./ha
Text: as §2

[15] = test system: barnyardgrass (Echinochloa crus-galli L.), ECHCG; experiment: Test Example 2 post-emergence (foliage treatment) herbicidal activity, ECHCG; conditions: 63 g a.i./ha
Text: as §2

[16] = test system: velvetleaf (Abutilon theophrasti): ABUTH; experiment: Test Example 1 pre-emergence herbicidal activity, ABUTH; conditions: Rate 63 g a.i./ha, visually observed 20th to 23rd day after application
Text: as §1

[17] = test system: wheat (Triticum aestivum L.), TRZAX; experiment: Test Example 2 post-emergence (foliage treatment) herbicidal activity, TRZAX; conditions: 63 g a.i./ha
Text: as §2

[18] = test system: barnyardgrass (Echinochloa crus-galli L.): ECHCG; experiment: Test Example 1 pre-emergence herbicidal activity, ECHCG; conditions: Rate 63 g a.i./ha, visually observed 20th to 23rd day after application
Text: as §1

[19] = test system: crabgrass (Digitaria sanguinalis L.): DIGSA; experiment: Test Example 1 pre-emergence herbicidal activity, DIGSA; conditions: Rate 63 g a.i./ha, visually observed 20th to 23rd day after application
Text: as §1

Compound	Pre-emergence Herbicidal Activity SIDSP (growth controlling degree) [1] [%]	growth controlling degree, GLXMA [2] [%]	growth controlling degree, ABUTH [3] [%]	Pre-emergence Herbicidal Activity SETVI (growth controlling degree) [4] [%]	Pre-emergence Herbicidal Activity ORYSA (growth controlling degree) [5] [%]	growth controlling degree, DIGSP [6] [%]	Pre-emergence Herbicidal Activity AMARE (growth controlling degree) [7] [%]	growth controlling degree, ORYSA [8] [%]	Pre-emergence Herbicidal Activity TRZAX (growth controlling degree) [9] [%]	growth controlling degree, SETVI [10] [%]	Pre-emergence Herbicidal Activity ZEAMX (growth controlling degree) [11] [%]	Pre-emergence Herbicidal Activity GLXMA (growth controlling degree) [12] [%]	growth controlling degree, AMARE [13] [%]	growth controlling degree, ZEAMX [14] [%]	growth controlling degree, ECHCO [15] [%]	Pre-emergence Herbicidal Activity ABUTH (growth controlling degree) [16] [%]	growth controlling degree, TRZAX [17] [%]	Pre-emergence Herbicidal Activity ECHCG (growth controlling degree) [18] [%]	Pre-emergence Herbicidal Activity DIGSP (growth controlling degree) [19] [%]
CCOC(=O)C(C)Nc1c(OC)c(Cl)cc(F)c1-c1nn(C)c(OC(F)F)c1Cl (stereo not drawn) [Compound 1-76]	60	70	100	60	10	70	100	80	0	80	0	0	100	90	100	40	40	60	100
COc1c(Cl)cc(F)c(-c2nn(C)c(OC(F)F)c2Cl)c1NC(=O)CCC1CCCCC1 [Compound 1-259]	30	10	100	30	0	30	100	10	10	50	0	0	100	0	50	0	0	10	20
COc1c(Cl)cc(F)c(-c2nn(C)c(OC(F)F)c2Cl)c1NC(=O)c1cccc(C)c1 [Compound 1-260]	70	70	100	100	50	95	100	60	30	100	10	0	100	60	100	40	40	60	100
